Measurements as given in patent publication EP1582590A1, “Sequential intracellular screening method” (Aptanomics, priority 2004, dated 2005).
Read-outs that look alike come from different tables or passages of the source.

What was measured:
Format in all cases: cell-based
[1] = target: TGF-β-R/FKBP12 (Rattus norvegicus, UniProt Q62658); assay: luminescent yeast two-hybrid assay, inhibition of protein interaction by small molecules (luc reporter)
Experimental: They were grown from frozen transformants.
(§1) 20µl of yeast cultures were delivered into 96 well half area white plates (Coming-Costar, ref. 3693). When applicable, 2µl of either DMSO 10% or 10µM of small molecules were added. 2µl of Galactose 20% were added to the wells to induce the expression of the preys. When two different yeast cultures were mixed in a single well, 10µl of each culture were used, to reach a total of 20µl. Plates were incubated at room temperature and left non-agitated for various times. To reveal the activity of both luciferases, a Dual-Glo™ luciferase assay system was used (Promega, ref. E2920) according to the instructions of the manufacturer. Briefly, to lyse the yeast and reveal the activity of firefly luciferase, 25µl of reagent was added and the plates were incubated for another 40 to 60min at room temperature, without agitation, before being read in a luminometer. To reveal the activity of Renilla luciferase, 25µl of "stop&glo reagent" were added to the wells and the plates were incubated for another 60min at room temperature, without agitation, before a second reading. Luminescence was measured by a Trilux (Perkin Elmer) setting the integration at 1sec/well. Values are given in LCPS (1LCPS = 100 counts per sec).

[2] = target: T1, interaction between Trα and NCoR (Homo sapiens, UniProt P10827); assay: dual (duplex) two-hybrid assay, two yeast populations mixed in one well, ruc signal
T1 construct: expressed in transfected cells; host or cells: Saccharomyces cerevisiae TB50 (WT and ERG6-deleted)
T1 sequence (P10827 1-410 isoform P10827-2): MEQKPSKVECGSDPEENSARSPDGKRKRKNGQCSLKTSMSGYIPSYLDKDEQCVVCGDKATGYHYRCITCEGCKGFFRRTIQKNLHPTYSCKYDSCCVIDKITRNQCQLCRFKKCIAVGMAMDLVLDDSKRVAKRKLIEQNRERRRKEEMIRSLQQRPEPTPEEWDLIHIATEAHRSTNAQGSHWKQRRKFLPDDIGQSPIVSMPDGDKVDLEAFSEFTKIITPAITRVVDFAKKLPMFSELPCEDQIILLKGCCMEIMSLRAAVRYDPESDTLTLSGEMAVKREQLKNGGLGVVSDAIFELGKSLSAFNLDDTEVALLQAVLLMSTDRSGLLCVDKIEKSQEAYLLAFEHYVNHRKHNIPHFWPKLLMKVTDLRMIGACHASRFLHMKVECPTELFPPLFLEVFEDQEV
Experimental: (§2) Yeast strains TB50 WT and TB50 ERG6 were transformed as described in Figure 1. They were grown from frozen transformants. For each strain, the two yeast cultures containing the two protein interactions were mixed together and delivered into a microwell plate. […] Experiments were performed in duplicates. The values are normalized with the signals obtained in presence of DMSO.
as §1, with “To reveal the activity of both luciferases, a Dual-Glo™ luciferase assay system was used (Promega, ref. E2920) according to the instructions of the manufacturer.” left out, “Values are given in LCPS (1LCPS = 100 counts per sec).” left out

[3] = tested on: lexA-TGFβ-R and B42-FKBP12; assay: dual (duplex) two-hybrid assay, two yeast populations mixed in one well, luc signal
Experimental: as §2
as §1, with “To reveal the activity of both luciferases, a Dual-Glo™ luciferase assay system was used (Promega, ref. E2920) according to the instructions of the manufacturer.” left out, “Values are given in LCPS (1LCPS = 100 counts per sec).” left out

Sequence of TGF-β-R/FKBP12 (Q62658 whole entry): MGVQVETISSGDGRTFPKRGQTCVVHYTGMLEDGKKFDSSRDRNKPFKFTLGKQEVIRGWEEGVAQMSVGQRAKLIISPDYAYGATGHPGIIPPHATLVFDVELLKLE
Sequence of TGF-β-R/FKBP12 (P80204 146-501 partner): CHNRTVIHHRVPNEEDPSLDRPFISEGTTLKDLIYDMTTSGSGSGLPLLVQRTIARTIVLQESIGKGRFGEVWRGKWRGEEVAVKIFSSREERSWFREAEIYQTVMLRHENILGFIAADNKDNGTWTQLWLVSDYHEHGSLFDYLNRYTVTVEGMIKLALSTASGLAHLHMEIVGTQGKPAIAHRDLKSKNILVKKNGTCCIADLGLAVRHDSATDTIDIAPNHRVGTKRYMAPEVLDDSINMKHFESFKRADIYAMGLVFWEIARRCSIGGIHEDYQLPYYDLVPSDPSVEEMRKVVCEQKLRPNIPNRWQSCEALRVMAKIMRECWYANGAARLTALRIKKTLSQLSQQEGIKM

Row | SMILES | inhibition at 10 µM ([1]; read-out: % Inhibition 10µM, Addition of compound C 23h after induction of prey (partner B), plates read 5h later, TB50 WT) | inhibition at 10 µM ([1]; read-out: % Inhibition 10µM, Addition of compound C before induction of prey (partner B), 5h induction time, TB50 WT) | inhibition at 10 µM ([1]; read-out: inhibition of two-hybrid signals, 10µM FK506, maximum inhibition after 4h of induction time) | inhibition of the ruc two-hybrid signal ([2]; ERG6 deleted strain, high concentration of FK506, non-cognate interaction, duplex, induction time 5h) | effect on luc two-hybrid signal [3] | effect on ruc two-hybrid signal [2]
1 | C=CC[C@@H]1/C=C(\C)C[C@H](C)C[C@H](OC)[C@H]2O[C@@](O)(C(=O)C(=O)N3CCCC[C@H]3C(=O)O[C@H](/C(C)=C/[C@@H]3CC[C@@H](O)[C@H](OC)C3)[C@H](C)[C@@H](O)CC1=O)[C@H](C)C[C@@H]2OC [FK506] | 46% | 80% | > 90% | 40% |  | 
2 | C[C@@H]1C[C@@H]([C@H](O)CC2CC(=O)NC(=O)C2)C(=O)[C@@H](C)C1 [cycloheximide] |  |  |  |  | strongly inhibited both two-hybrid signals | strongly inhibited both two-hybrid signals
